Results reported in PubChem BioAssay AID248 (DTP/NCI, 2004).
Values joined by “and” are separate entries in the source; they are usually repeats but may differ in a detail not shown here. Equal values may be shown once. Toxic doses and inconclusive results are not listed. Cut-off read from the data, not from the text of the source: active = T/C of 150% or more; inactive = T/C below 125%.

Tested on: L1210 leukemia ip in BDF1 mice, survival T/C
Experiment: NCI In Vivo Anticancer Drug Screen. Data for tumor model L1210 Leukemia (intraperitoneal) in B6D2F1 (BDF1) mice
Conditions: endpoint: mean survival time, higher = longer survival
Summary of the method: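 Read-out is survival time, reported as the treated-group measurement over the vehicle-control measurement.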

[1] = dose: 100.0 mg/kg/injection, schedule: Q01DX009 (ip), vehicle: Klucel (hydroxypropylcellulose) (HPC)
[2] = dose: 100.0 mg/kg/injection, schedule: Q04DX003 (ip), vehicle: Klucel (hydroxypropylcellulose) (HPC)
[3] = dose: 200.0 mg/kg/injection, schedule: Q01DX009 (ip), vehicle: Klucel (hydroxypropylcellulose) (HPC)
[4] = dose: 200.0 mg/kg/injection, schedule: Q04DX003 (ip), vehicle: Klucel (hydroxypropylcellulose) (HPC)
[5] = dose: 400.0 mg/kg/injection, schedule: Q01DX009 (ip), vehicle: Klucel (hydroxypropylcellulose) (HPC)
[6] = dose: 400.0 mg/kg/injection, schedule: Q04DX003 (ip), vehicle: Klucel (hydroxypropylcellulose) (HPC)
[7] = dose: 100.0 mg/kg/injection, schedule: Q01DX009 (ip), vehicle: saline with Tween-80
[8] = dose: 200.0 mg/kg/injection, schedule: Q01DX009 (ip), vehicle: saline with Tween-80
[9] = dose: 100.0 mg/kg/injection, schedule: Q04DX003 (ip), vehicle: saline with Tween-80
[10] = dose: 200.0 mg/kg/injection, schedule: Q04DX003 (ip), vehicle: saline with Tween-80
[11] = dose: 400.0 mg/kg/injection, schedule: Q04DX003 (ip), vehicle: saline with Tween-80
[12] = dose: 100.0 mg/kg/injection, schedule: Q01DX001 (ip), vehicle: saline
[13] = dose: 200.0 mg/kg/injection, schedule: Q01DX001 (ip), vehicle: saline
[14] = dose: 400.0 mg/kg/injection, schedule: Q01DX001 (ip), vehicle: saline
[15] = dose: 200.0 mg/kg/injection, schedule: Q04DX002 (ip), vehicle: saline
[16] = dose: 400.0 mg/kg/injection, schedule: Q01DX009 (ip), vehicle: saline with Tween-80

Measured: T/C

CC(C)C(NC(=O)c1ccccc1)C(=O)O (stereo not drawn)
inactive: [1] 92 % of control | [2] 96 % of control | [3] 98 % of control | [4] 113 % of control | [5] 96 % of control | [6] 100 % of control

CCCCOC(=O)Nc1cccc(O)c1
inactive: [7] 92 % of control | [8] 87 % of control

C[n+]1ccc(/C=C/c2csc3ccccc23)cc1
inactive: dose: 5.0 mg/kg/injection, schedule: Q01DX001 (ip), vehicle: carboxymethylcellulose (CMC) 107 % of control | dose: 10.0 mg/kg/injection, schedule: Q01DX001 (ip), vehicle: carboxymethylcellulose (CMC) 96 % of control | dose: 20.0 mg/kg/injection, schedule: Q01DX001 (ip), vehicle: carboxymethylcellulose (CMC) 91 % of control | dose: 40.0 mg/kg/injection, schedule: Q01DX001 (ip), vehicle: carboxymethylcellulose (CMC) 98 % of control

CN1C2CCC1CC(=C(C#N)C(N)=O)C2
inactive: dose: 3.13 mg/kg/injection, schedule: Q01DX009 (ip), vehicle: Klucel (hydroxypropylcellulose) (HPC) 100 % of control | dose: 3.13 mg/kg/injection, schedule: Q04DX003 (ip), vehicle: Klucel (hydroxypropylcellulose) (HPC) 107 % of control | dose: 6.25 mg/kg/injection, schedule: Q01DX009 (ip), vehicle: Klucel (hydroxypropylcellulose) (HPC) 98 % of control | dose: 6.25 mg/kg/injection, schedule: Q04DX003 (ip), vehicle: Klucel (hydroxypropylcellulose) (HPC) 102 % of control | dose: 12.5 mg/kg/injection, schedule: Q04DX003 (ip), vehicle: Klucel (hydroxypropylcellulose) (HPC) 104 % of control and 88 % of control

Cc1ccc(S(=O)(=O)N(C)c2ccc(C#N)c(Cl)c2Cl)cc1
inactive: [9] 98 % of control | [10] 96 % of control | [11] 98 % of control

O=C1CCCC2C1CCCC21OCCO1 (stereo not drawn)
inactive: [12] 96 % of control | [13] 96 % of control | [14] 96 % of control

O=C(Nc1ccccc1)Nc1cccc([N+](=O)[O-])c1
inactive: dose: 100.0 mg/kg/injection, schedule: Q04DX002 (ip), vehicle: saline 100 % of control | [15] 92 % of control | dose: 400.0 mg/kg/injection, schedule: Q04DX002 (ip), vehicle: saline 103 % of control

COC(=O)c1ccc(=O)c2nc3/c(=C/O)c(O)cc(=O)c3[nH]c12
inactive: dose: 23.0 micrograms/kg/injection, schedule: Q01DX001 (ip), vehicle: acetone 90 % of control | dose: 23.0 micrograms/kg/injection, schedule: Q01DX009 (ip), vehicle: saline 100 % of control | dose: 23.0 micrograms/kg/injection, schedule: Q04DX003 (ip), vehicle: saline 110 % of control | dose: 47.0 micrograms/kg/injection, schedule: Q01DX001 (ip), vehicle: acetone 93 % of control | dose: 47.0 micrograms/kg/injection, schedule: Q01DX009 (ip), vehicle: saline 113 % of control | dose: 47.0 micrograms/kg/injection, schedule: Q04DX003 (ip), vehicle: saline 97 % of control | dose: 95.0 micrograms/kg/injection, schedule: Q01DX001 (ip), vehicle: acetone 92 % of control | dose: 95.0 micrograms/kg/injection, schedule: Q04DX003 (ip), vehicle: saline 101 % of control

O=c1ccnc[nH]1
inactive: [7] 92 % of control | [8] 93 % of control | [16] 88 % of control

CC(=O)CSc1ccccn1
inactive: dose: 100.0 mg/kg/injection, schedule: Q01DX001 (ip), vehicle: carboxymethylcellulose (CMC) 102 % of control | dose: 200.0 mg/kg/injection, schedule: Q01DX001 (ip), vehicle: carboxymethylcellulose (CMC) 94 % of control | dose: 400.0 mg/kg/injection, schedule: Q01DX001 (ip), vehicle: carboxymethylcellulose (CMC) 96 % of control

O=C(/C=C/c1ccc(Cl)c(Cl)c1)c1ccccc1[N+](=O)[O-]
inactive: [1] 103 % of control | [3] 97 % of control | [5] 92 % of control

CCCCCCCCCCC(S(=O)(=O)CC)S(=O)(=O)CC
inactive: dose: 100.0 mg/kg/injection, schedule: Q01DX001 (ip), vehicle: Klucel (hydroxypropylcellulose) (HPC) 97 % of control | dose: 200.0 mg/kg/injection, schedule: Q01DX001 (ip), vehicle: Klucel (hydroxypropylcellulose) (HPC) 94 % of control

CCOC1=C(Br)C=CN(S(=O)(=O)c2ccc(C)cc2)c2ccc(OC)cc21
inactive: [1] 98 % of control | [2] 95 % of control | [3] 101 % of control | [4] 101 % of control | [5] 100 % of control | [6] 91 % of control

CCCCOP(=O)(OCCCC)O/C(C)=C(\C)OP(=O)(OCC)OCC
inactive: dose: 25.0 mg/kg/injection, schedule: Q04DX002 (ip), vehicle: saline 97 % of control and 102 % of control | dose: 25.0 mg/kg/injection, schedule: Q04DX003 (ip), vehicle: saline 102 % of control | dose: 50.0 mg/kg/injection, schedule: Q04DX002 (ip), vehicle: saline 95 % of control and 97 % of control | dose: 50.0 mg/kg/injection, schedule: Q04DX003 (ip), vehicle: saline 108 % of control | dose: 100.0 mg/kg/injection, schedule: Q04DX003 (ip), vehicle: saline 108 % of control | [15] 97 % of control

CCCCCC(=O)OCCOC(=O)CCCCC
inactive: [7] 103 % of control | [8] 101 % of control | [16] 92 % of control

Cc1ccccc1S(=O)(=O)c1cccs1
inactive: [12] 98 % of control | dose: 100.0 mg/kg/injection, schedule: Q04DX003 (ip), vehicle: acetone 98 % of control | [13] 95 % of control | dose: 200.0 mg/kg/injection, schedule: Q04DX003 (ip), vehicle: acetone 104 % of control | [14] 93 % of control | dose: 400.0 mg/kg/injection, schedule: Q04DX003 (ip), vehicle: acetone 93 % of control

NC(=O)/C=C/c1ccc([N+](=O)[O-])cc1
inactive: [2] 97 % of control | [4] 100 % of control | [6] 97 % of control

Cc1cccc(NC(=O)Oc2ccc3c(C)cc(=O)oc3c2)c1
inactive: [1] 110 % of control | dose: 100.0 mg/kg/injection, schedule: Q04DX002 (ip), vehicle: Klucel (hydroxypropylcellulose) (HPC) 93 % of control | [3] 98 % of control | dose: 200.0 mg/kg/injection, schedule: Q04DX002 (ip), vehicle: Klucel (hydroxypropylcellulose) (HPC) 96 % of control | [5] 94 % of control | dose: 400.0 mg/kg/injection, schedule: Q04DX002 (ip), vehicle: Klucel (hydroxypropylcellulose) (HPC) 93 % of control

CCCCNS(=O)(=O)c1ccc(NC(=O)c2ccc3ccccc3c2O)c([N+](=O)[O-])c1
inactive: [9] 90 % of control | [10] 88 % of control | [11] 88 % of control
